Where two headings read alike, the source gives them in different places. Marks after values point to notes of the source that are not given here.
How the values were obtained:
[1] = cited from earlier work
[2] = skin-PAMPA permeability assay (gradient-pH, UPLC-DAD); details: for Papp at 4 h, 50 μM / Papp at 24 h, 50 μM / Papp at 30 min, 50 μM: PAMPA; for RM (membrane retention): mole fraction, neutral form
[3] = parameters: method as in earlier work; details: octanol-water partition coefficient; cited from earlier work
[4] = skin-PAMPA membrane stability after pre-treatment at basic pH; details: membrane soaked at pH 7, 8, 9, 10 for 30 min or 4 h; then assay 4 h with stirring, donor pH 5, acceptor pH 7.4; versus untreated membrane
Method: Then, a standard permeation assay was carried out with an incubation time of 4 h and stirring at pH 5 in the donor compartment and pH 7.4 in the acceptor compartment. Simultaneously, permeation assays were also performed without the previous soaking treatment at basic pH.

in vitro = details: PAMPA, pH 7.4, log Pe
[5] = aqueous; cited from earlier work
[6] = logarithm of human skin permeation coefficient, neutral form, corrected for ionization in water and for temperature at 37 °C
[7] = optimized assay conditions (4 h incubation, stirring), measured at the pH corresponding to the neutral form, acceptor pH 7.4
[8] = pH 7.4, log Pe, optimized assay conditions (4 h incubation, stirring), measured at the pH corresponding to the neutral form, acceptor pH 7.4
[9] = log Pe, with stirring, 4 h incubation, neutral form (donor pH 3.0, aminopyrine pH 7.0), acceptor pH 7.4, 32 °C
[10] = log Pe, without stirring, 30 min incubation, neutral form (donor pH 3.0, aminopyrine pH 7.0), acceptor pH 7.4, 32 °C
[11] = log Pe, without stirring, 4 h incubation, neutral form (donor pH 3.0, aminopyrine pH 7.0), acceptor pH 7.4, 32 °C
[12] = with stirring, 30 min incubation
[13] = without stirring, 30 min incubation
[14] = without stirring, 4 h incubation
[15] = without stirring, 24 h incubation
[16] = with stirring, 30 min incubation, neutral form (donor pH 3.0, aminopyrine pH 7.0), acceptor pH 7.4, 32 °C

Cn1c(=O)c2c(ncn2C)n(C)c1=O [Caffeine]
log Kp [1, 6]: -6.85 cm/s

COC(=O)Cc1ccc(O)cc1 [4-Hydroxy-methylphenylacetate]
log Kp [1, 6]: -5.26 cm/s
log Pe [2, 7]: -5.07±0.09 cm/s

Cc1ccc(C(C)C)c(O)c1 [2-Isopropyl-5-Methylphenol (Thymol), 2-Isopropyl-5-Methylphenol]
log Kp [1, 6]: -4.35 cm/s
Papp at 4 h, 50 μM [2, 8]: 97.7 ×10⁻⁶ cm/s

Nc1ccc(O)c([N+](=O)[O-])c1 [4-Amino-2-nitrophenol]
log Kp [1, 6]: -5.91 cm/s
Papp at 4 h, 50 μM [2, 8]: 25.7 ×10⁻⁶ cm/s

COC1=CC(=O)C[C@@H](C)[C@]12Oc1c(Cl)c(OC)cc(OC)c1C2=O [Griseofulvin]
log Po/w [3]: 2.18
log Kp [1, 6]: -6.44 cm/s
Papp at 4 h, 50 μM [2, 9]: 5.62 ×10⁻⁶ cm/s
Papp at 24 h, 50 μM ([2]; log Pe, with stirring, 24 h incubation, neutral form (donor pH 3.0, aminopyrine pH 7.0), acceptor pH 7.4, 32 °C): 7.59 ×10⁻⁶ cm/s
Papp at 30 min, 50 μM [2, 10]: 2.24 ×10⁻⁶ cm/s
Papp at 4 h, 50 μM [2, 11]: 4.68 ×10⁻⁶ cm/s
Papp at 24 h, 50 μM ([2]; log Pe, without stirring, 24 h incubation, neutral form (donor pH 3.0, aminopyrine pH 7.0), acceptor pH 7.4, 32 °C): 6.31 ×10⁻⁶ cm/s
Papp at 4 h, 50 μM [2, 8]: 5.25 ×10⁻⁶ cm/s
RM (membrane retention) [2, 12]: 0.06(±0.01)
RM (membrane retention) ([2]; with stirring, 4 h incubation): 0.19(±0.01)
RM (membrane retention) ([2]; with stirring, 24 h incubation): 0.24(±0.02)
RM (membrane retention) [2, 13]: 0.03(±0.02)
RM (membrane retention) [2, 14]: 0.16(±0.01)
RM (membrane retention) [2, 15]: 0.20(±0.02)
log Pe [2, 16]: -5.61(±0.01) cm/s
change of skin-PAMPA log Pe after membrane treatment at basic pH [4]: slight increase at pH 9 and 10

O=C(O)Cc1ccccc1Nc1c(Cl)cccc1Cl [Diclofenac]
log Kp [1, 6]: -5.30 cm/s
Papp at 4 h, 50 μM [2, 8]: 162 ×10⁻⁶ cm/s

COc1c2occc2cc2ccc(=O)oc12 [8-Methoxypsoralen]
Papp at 4 h, 50 μM [2, 8]: 50.1 ×10⁻⁶ cm/s

NC(=O)Cc1ccc(O)cc1 [4-Hydroxyphenylacetamide]
log Kp [1, 6]: -6.89 cm/s
Papp at 4 h, 50 μM [2, 8]: 0.851 ×10⁻⁶ cm/s

CC(C)Cc1ccc(C(C)C(=O)O)cc1 (stereo not drawn) [Ibuprofen]
log Kp [1, 6]: -4.58 cm/s
Papp at 4 h, 50 μM [2, 9]: 245 ×10⁻⁶ cm/s
Papp at 30 min, 50 μM [2, 10]: 257 ×10⁻⁶ cm/s
Papp at 4 h, 50 μM [2, 11]: 224 ×10⁻⁶ cm/s
RM (membrane retention) [2, 12]: 0.22(±0.03)
RM (membrane retention) ([2]; with stirring, 4 h incubation): 0.00
RM (membrane retention) ([2]; with stirring, 24 h incubation): 0.00
RM (membrane retention) [2, 13]: 0.19(±0.07)
RM (membrane retention) [2, 14]: 0.09(±0.03)
RM (membrane retention) [2, 15]: 0.00
log Pe [2, 7]: -3.61±0.06 cm/s
log Pe [2, 16]: -2.71(±0.04) cm/s

Cc1ccccc1N [2-toluidine]
change of skin-PAMPA log Pe after membrane treatment at basic pH [4]: remain constant

CCC1(c2ccccc2)C(=O)NC(=O)NC1=O [5-Ethyl-5-phenylbarbituric acid]
Papp (in vitro): 0.891 ×10⁻⁶ cm/s
log Kp ([1]; human): -6.68 cm/s

COc1ccccc1 [Methyl phenyl ether (Anisole), Methyl phenyl ether]
log Kp [1, 6]: -4.68 cm/s
Papp at 4 h, 50 μM [2, 8]: 45.7 ×10⁻⁶ cm/s

CC(=O)OCC(=O)[C@@]12OC(C)(C)O[C@@H]1C[C@H]1[C@@H]3C[C@H](F)C4=CC(=O)C=C[C@]4(C)[C@@]3(F)[C@@H](O)C[C@@]12C [Fluocinonide]
Papp at 4 h, 50 μM [2, 8]: 4.17 ×10⁻⁶ cm/s

Oc1ccc(Cl)cc1 [4-Chlorophenol]
log Kp [1, 6]: -4.52 cm/s

CC(C(=O)O)c1cccc(C(=O)c2ccccc2)c1 (stereo not drawn) [Ketoprofen]
log Kp [1, 6]: -5.22 cm/s

Oc1ccc(O)cc1 [Hydroquinone]
log Kp [1, 6]: -6.31 cm/s
Papp at 4 h, 50 μM [2, 8]: 1.35 ×10⁻⁶ cm/s

Cc1c(N(C)C)c(=O)n(-c2ccccc2)n1C [Aminopyrine]
pKa [5]: 5.00 ^b
log Kp [1, 6]: -6.55 cm/s

CC(=O)[C@@]1(O)CC[C@H]2[C@@H]3CCC4=CC(=O)CC[C@]4(C)[C@H]3CC[C@@]21C [Hydroxyprogesterone]
log Kp [1, 6]: -6.30 cm/s
log Pe [2, 7]: -4.70±0.05 cm/s

O=[N+]([O-])c1ccc(O)cc1 [4-Nitrophenol]
Papp (in vitro; [7]): 12.3 ×10⁻⁶ cm/s
log Kp [1, 6]: -5.33 cm/s

COC(=O)c1ccc(O)cc1 [Methyl 4-hydroxybenzoate]
log Kp [1, 6]: -5.12 cm/s
